Where two headings read alike, the source gives them in different places.
Experiments:
[1] = tested on: MV4-11; experiment: MTS cell proliferation assay, MV4-11; type: cell-based; conditions: for IC50: Homo sapiens, MV4-11, MTS
[2] = tested on: murine AML cells (Tet2-KO/Flt3-ITD, IDH2-R140Q/Flt3-ITD); experiment: MTS assay on murine AML bone marrow cells ex vivo; type: cell-based, mice; conditions: 0-10 μM, 96 hours
From the text: (§1) Triplicate wells were set up for each condition.
In particular, the in vivo effects of Cpd3 on the immune repertoire is important in view of previous reports describing DHODH inhibitors as having diverse effects on innate and cellular immune function. FIGS. 9A-9B show representative data for proliferation of murine AML cells in the presence of a representative disclosed compound, Cpd3, compared to a reference compound, brequinar (indicated as “BQR” in the figure). […] Briefly, bone marrow cells were isolated from leukemic Tet2-KO/Flt3-ITD mice (FIG. 9A; N=7) or leukemic IDH2-R140Q/Flt3-ITD mice (FIG. 9B; N=3) were treated ex vivo with Cpd3 or BQR (dose range 0-10 μM). Cell growth was determined at 96 hours relative to the vehicle (DMSO) control using a MTS cell proliferation assay as described herein below.

[3] = tested on: MOLM-13; experiment: MTS cell proliferation assay, MOLM-13; type: cell-based; conditions: Homo sapiens, 96 hours
Method: as §1
The assays were carried out in a blinded fashion.

[4] = tested on: primary human AML cells; experiment: Cytospin slides and Wright-Giemsa staining for differentiation; type: cell-based; conditions: 1 μM, 14 days
Method: Cytospin slides and Wright-Giemsa staining for differentiation: Primary AML cells were solubilized from the methocult in the CFU assays. 150-300K cells were immobilized onto microscope slides and stained with Wright-Giemsa stain. Differentiated myeloid cells were recognized by the typical morphological changes associated with early neutrophil differentiation including a characteristic multi-lobed or kidney bean shaped nucleus.
The primary AML cells following treatment with Cpd3 were analyzed by Wright-Giemsa stain. FIGS. 4A-4C show representative micrographs of primary human AML cells treated a representative disclosed compound, Cpd3, compared to a reference compound, brequinar, or vehicle treatment using methods as described herein below. Briefly, primary AML cells were treated with vehicle (DMSO), Cpd3 (1 μM) or brequinar (BQR, 1 μM) and plated in semi-solid methylcellulose-based media for 14 days. Cells were recovered from the methylcellulose and immobilized on glass slides and stained with a Wright-Giemsa stain (the more differentiated myeloid cells are indicated by the red arrows). The images are shown for vehicle treatment (FIG. 4A); Cpd3 treatment (FIG. 4B); and brequinar treatment (FIG. 4C). The primary human AML cells are from a representative patient sample. […]

[5] = tested on: primary human AML cells; experiment: Colony formation (CFU) assay in methocult media; type: cell-based; conditions: 1 μM, 14 days
Method: Colony formation (CFU) assays in methocult media: CFU assays can detect an increase or decrease in the frequency of the hematopoietic progenitor proliferation and/or changes in differentiation potential in response to stimulatory, inhibitory or toxic agents. For CFU assays with primary AML cells, cells were cultured overnight in media containing IL-3, GM-CSF, SCF, and FLT3L cytokines at 20 ng/ml. 10-25K primary cells were suspended in MethoCult™ Optimum without EPO which is supplemented with SCF, IL-3, G-CSF, GM-CSF along with vehicle, 1 μM Cpd3 or 1 μM brequinar. After 14 days the total number of colonies was counted and the cells were solubilized from the methocult for cytospin assays described below. […] FIGS. 3A-3B show representative data for colony formation for primary human AML cells in the presence of a representative disclosed compound, Cpd3, compared to a reference compound, brequinar, or vehicle treatment using methods as described herein below. Briefly, primary AML cells were treated with vehicle (DMSO), Cpd3 (1 μM) or brequinar sodium (BQR, 1 μM) and plated in methocult media for 14 days. Results are plotted as the total number of colonies per each condition. Lines connecting data from the same patient sample are shown in order to indicate the trend within a particular sample.

[6] = tested on: IDH2-R140Q/Flt3-ITD spleen cells (murine AML); experiment: IDH2-R140Q/Flt3-ITD adoptive transfer model; type: in vivo, NCG mice
From the text: Leukemic cells derived from a spontaneous murine model of Idh2/Flt3 AML, as reported by Shih et al (Cancer Discov. 7(5):494-505), were engrafted via adoptive transfer to generate an aggressive model of AML suitable for testing of therapeutic agents. Briefly, 6-8 week old mice harboring a heterozygous internal tandem duplication of FMS-like tyrosine kinase 3 (Flt3-ITD), a heterozygous point mutation of isocitrate dehydrogenase 2 (Idh2-R140Q) preceeded by a loxP flanked STOP codon, and Cre recombinase under the MX dynamin like GTPase 1 (Mx1) promoter were injected i.p. with polyinosinic:polycytidylic acid (poly(I:C)), activating Cre recombinase and inducing hematopoietic-specific expression of the Idh2-R140Q mutation. Spleen cells from these mice were collected after the development of lethal AML (defined by study removal criteria), typically 8-14 months post-poly(I:C) injection. 1×10^5 spleen cells from a single leukemic donor were engrafted by tail vein injection into 6 week old immune deficient NOD-Prkdc^em26Cd52//2rg^em26Cd22/NjuCrl mice (NCG; Charles River). At one week post-engraftment, animals were randomized to vehicle (5% EtOH, 10% Kolliphor EL, in PBS), enasidenib (100 mg/kg), and HOSU-3 (50 mg/kg) treatment arms and dosed by daily oral gavage. Personnel responsible for animal monitoring, dosing, and decisions regarding euthanasia were blinded to treatment arms. Survival was assessed using Kaplan-Meier analysis and p-values were determined using the log-rank test and adjusted using Holm's method.

[7] = tested on: luciferase-expressing MOLM-13 cells; experiment: MOLM13 xenograft study, daily dosage regimen; type: in vivo, NCG mice
Method: The effect of a representative disclosed compound, Cpd3, on in vivo tumor growth was assessed in a MOLM13 xenograft study was examined using a daily dosage regimen. Briefly, male NCG (NOD-Prkdc^em26Cd52//2rg^em26Cd22/NjuCrl) mice (N=12 per group) were given an intravenous injection of 1×10^4 luciferase-expressing MOLM-13 cells. As discussed above, this model is believed to be a very aggressive model of tumor growth (vehicle treated mice typically reach early removal criteria by 24-26 days post-engraftment). Briefly, NCG mice were injected with 1×10^4 MOLM13-luciferase cells (N=12 per group) and at 4 days post-engraftment (Day 0) were imaged and enrolled into one of three treatment groups: Vehicle, 25 mg/kg Cpd3 (administered daily) or 50 mg/kg Cpd3 (administered daily). […] The color scale represents the radiance (p/s/cm2/sr), related to the amount of luciferase expression and therefore disease burden. […] Survival data were calculated using Kapler Meyer analysis (vehicle vs. 25 mg/kg dosing with Cpd3 or vehicle vs. 50 mg/kg dosing with Cpd3; each p<0.001). Arrow indicates the start of treatment.

CCOc1ccc(-c2ccc(-c3cc(C(=O)O)c4cc(F)ccc4n3)cc2)cc1 [Cpd3, 2-(4′-ethoxy-[1,1′-biphenyl]-4-yl)-6-fluoroquinoline-4-carboxylic acid]
rescue of cytotoxic effects by uridine ([1]; 0.25 or 0.5 μM compound, uridine 0 to 200 μM, 96 hours): rescued by growth in the presence of uridine
IC50 ([1]; 96 hour, Table 7, read-out: 96 hour IC50 (nM) in MV-411 cell line): ~500 nM
IC50 ([1]; 96 hours, read-out: IC50 (μM) at 96 hours, MV4-11): 670 nM
potency on murine leukemic cells ex vivo relative to BQR [2]: a log fold more potent than BQR
IC50 [3]: 0.4 µM
differentiation by Wright-Giemsa stain [4]: induces differentiation in primary human AML cells
growth in methocult colony forming unit (CFU) assays [5]: decreased growth
survival compared to vehicle and enasidinib treatment groups ([6]; 50 mg/kg once daily): significant improvement in survival
Median survival ([6]; daily oral gavage, Cpd3 50 mg/kg, enasidenib 100 mg/kg): 42 days
Median survival time ([7]; 25 mg/kg QD PO): 24 days
Median survival time ([7]; 50 mg/kg QD PO): 27 days
tumor burden (luciferase expression by IVIS imaging) ([7]; 25 or 50 mg/kg administered daily): able to reduce the tumor burden in the mice
